Columns and labels:
Bmi-1 = Bmi-1 expressions of the NSCs, Western blot; type: cell-based, mice
Experimental: To prepare the NSCs, after removal of meninges, subventricular zones (SVZ) of lateral ventricles from adult mice brain (4 week-of-age) are aseptically isolated and dissociated as previously described (J Cell Sci 2006; 119, 4467-4474). All steps are operated under sterile conditions. Then, neurosphere culture are prepared in neurobasal (NB) medium (Gibco BRL) supplemented with 2% of B27 (Gibco BRL), 2 mM of L-glutamine (PAN Biotech), 100 U/ml of penicillin/0.1 […] of streptomycin (Gibco BRL). For maintenance and expansion of the cultures, the NB/B27 is further supplemented with 2 μg/mL of heparin (Sigma), 20 ng/mL of FGF-2 (R&D Systems) and 20 ng/mL of EGF (R&D Systems). Neurosphere cultures are maintained at 37° C. in a humidified incubator with 5% CO2. For clonal/low density cultures, primary neurospheres grown at high density are dissociated into a single cell suspension and reseeded into 96-well plates at 100 cells per ml of media and the number of newly formed neurospheres is counted after 7 days. In addition, the Bmi-1 expressions, SOX2 expressions, Nestin expressions, Musashi-1 expressions, BrdU expressions and ki-67 expressions of the newly formed neurospheres are determined by the immunofluorescence staining. […]
The NSCs are exposed to the various dosages of the Compound 1 (0.1 μM, 1 μM, 10 μM and 100 μM) and cultured in the neurosphere culture. The HIF-1α expressions and the Bmi-1 expressions of the NSCs are detected by the Western blot analysis. […]
In another example, the HIF-1α expressions of the NSCs are inhibited and then 1 μM of the Compound 1 is added into the medium of the NSCs. The HIF-1α expression and the Bmi-1 expressions of the NSCs are detected by the Western blot analysis. […]
In still another example, the NSCs are exposed to 1 μM of the Compound 1 and further cultured for various lengths of time (0.5 hour, 1 hour, 4 hours, 8 hours, 16 hours and 24 hours). The HIF-1α expressions and the Bmi-1 expressions of the NSCs are detected by the Western blot analysis. […]

NSCs = assay: Proliferation index (PI) measurement of CFSE-labelled NSCs by flow cytometry; type: cell-based, mice; conditions: 1 μM for 16 hours; control group 4.37, FIG. 11C
Experimental: To prepare the NSCs, after removal of meninges, subventricular zones (SVZ) of lateral ventricles from adult mice brain (4 week-of-age) are aseptically isolated and dissociated as previously described (J Cell Sci 2006; 119, 4467-4474). All steps are operated under sterile conditions. Then, neurosphere culture are prepared in neurobasal (NB) medium (Gibco BRL) supplemented with 2% of B27 (Gibco BRL), 2 mM of L-glutamine (PAN Biotech), 100 U/ml of penicillin/0.1 mg/L of streptomycin (Gibco BRL). For maintenance and expansion of the cultures, the NB/B27 is further supplemented with 2 μg/mL of heparin (Sigma), 20 ng/mL of FGF-2 (R&D Systems) and 20 ng/mL of EGF (R&D Systems). Neurosphere cultures are maintained at 37° C. in a humidified incubator with 5% CO2. For clonal/low density cultures, primary neurospheres grown at high density are dissociated into a single cell suspension and reseeded into 96-well plates at 100 cells per ml of media and the number of newly formed neurospheres is counted after 7 days. In addition, the Bmi-1 expressions, SOX2 expressions, Nestin expressions, Musashi-1 expressions, BrdU expressions and ki-67 expressions of the newly formed neurospheres are determined by the immunofluorescence staining.
To analyze whet her he Compound 1 modulates the NSCs proliferation, this example examines the effect of the HIF-1α-Bmi-1 pathway on the self-renewal of the neurosphere. […]

ischemic rats = assay: Volume of the infarction after cerebral ischemia, magnetic resonance imaging (MRI); type: in vivo, Sprague-Dawley (SD) rats
Description: The ischemic rats are induced by an ischemia-reperfusion model to simulate transient focal cerebral ischemia in rats. Test animals are male Sprague-Dawley (SD) rats weighing 250-300 g. The rats are anesthetized with chloral hydrate (0.4 g/kg IP) and subjected to cerebral ischemia. The ischemia-reperfusion model is induced by ligations of bilateral common carotid arteries (CCAs) and a right middle cerebral artery (MCA). The bilateral CCAs are clamped with non-traumatic arterial clips, and the right MCA is ligated with an 10-0 nylon suture. After 90 minutes ischemia, the suture on the MCA and the arterial clips on CCAs are removed to allow reperfusion. Core body temperature is monitored with a thermistor probe (Hewlett-Packard Model 21090A probe, Hewlett-Packard Company, Andover, Mass.), and maintained at 37° C. with a heating pad during anesthesia. After recovery from anesthesia, rat body temperature is maintained at 37° C. with a heat lamp.
Further, the ischemic rats are assigned into 5 groups, 4 test groups and 1 control group. The ischemic rats of the test groups are injected with 1 mg/kg of the Compound 1, 30 mg/kg of the genipin, 1 mg/kg of the Compound 1 and 100 mg/kg of 2-ME2, and 1 mg/kg of the Compound 1 and the LV-Bmi-1-sh, respectively. The ischemic rats of the control group are injected with the vehicle. At 7 days after the injection, the ischemic rats of the different groups are anesthetized, and the volume of the infarction thereof is assessed by a magnetic resonance imaging (MRI).

[1] = 1 mg/kg, 7 days after the injection, FIGS. 18A, 18B

Row | Structure (SMILES) | exposure time at which the NSCs express the most Bmi-1 (Bmi-1; 1 μM, 0.5 to 24 hours tested, FIG. 10C) | Bmi-1 expressions of the NSCs (Bmi-1; 0.1, 1, 10, 100 μM, normoxia (21% O2), in particular 1 μM, FIG. 10A) | proliferation index (PI) of the NSCs (NSCs) | effect on the reduction of the infarction area, compared with genipin (ischemic rats; 1 mg/kg Compound 1 vs 30 mg/kg genipin, 7 days) | area of the largest infarction (MRI) (ischemic rats; [1]) | volume of the infarction (MRI) (ischemic rats; [1]) | enhancement of the Bmi-1 expressions induced by the Compound 1 in NSCs (Bmi-1; 1 μM 2-ME2 for 16 hours, then 1 μM Compound 1, FIG. 10B) | Compound-1-induced reduction of the volume of the infarction (MRI) (ischemic rats; 100 mg/kg 2-ME2 plus 1 mg/kg Compound 1, 7 days)
1 | COC(=O)C1=CO[C@@H](O)[C@@H]2C(COC(=O)[C@@H](N)Cc3ccccc3)=CC[C@H]12 [Compound 1] | 16 h | increased | 6.77 | better than that of the genipin | significantly reduced | significantly reduced |  | 
2 | COc1cc2c(cc1O)CC[C@@H]1[C@@H]2CC[C@]2(C)[C@@H](O)CC[C@@H]12 [Compound 2-ME2, 2-Methoxyestradiol, reference compound] |  |  |  |  |  |  | abolished | abolishes
